{"source": "patent US20060159715A1", "about": "“Conjugate of fine porous particles with polymer molecules and the utilization thereof” (priority 2003, published 2006)", "details": "L-DOPA added after three-hour incubation in phosphate buffer; FIG. 5", "description": "Hydroquinone was supported on conjugate in the same manner as in Example 4 except that hydroquinone was used in place of pyrene. Hydroquinone and clay particles-supported hydroquinone were examined for the resistance to the oxidation of L-DOPA.", "data": [{"compound": "Oc1ccc(O)cc1", "note": "[hydroquinone, Hydroquinone]", "values": [{"measurement": "antioxidation property against L-DOPA oxidation", "value": "completely lost antioxidation property"}]}]}
